The results in this text go back to ChEMBL document CHEMBL3244280, “Thiazolinone analogues of indolmycin with antiviral and antibacterial activity” (J Med Chem, 1978).

For orientation: MIC means the smallest concentration in the dilution series that meets the test's criterion for growth inhibition. A high value points to a less susceptible organism.

Series [1] deals with Bacillus subtilis. The experiment in a line: Antibacterial activity against Bacillus subtilis. The class given is functional.
Series [2] relates to Staphylococcus aureus. Nature of the series: Antibacterial activity against Staphylococcus aureus Oxford. It is filed as functional.
Series [3] has as its system Staphylococcus aureus. The experiment in a line: Antibacterial activity against Staphylococcus aureus Russel. The class given is functional.
Series [4] has as its system Staphylococcus aureus. The experiment in a line: Antibacterial activity against Staphylococcus aureus 1517. The class given is functional.
The test system of series [5] is Enterococcus faecalis. The experiment in a line: Antibacterial activity against Streptococcus faecalis I. The class given is functional.
Series [6] deals with Streptococcus pyogenes. The experiment in a line: Antibacterial activity against Streptococcus pyogenes CN10. The class given is functional.
Series [7] concerns Influenza A virus. Nature of the series: Antiviral activity against influenza A virus NWS/H0N1 infected in BHK cells by agar diffusion assay. It is filed as functional. A general note: In agar diffusion tests the substance spreads into inoculated agar from a disc or well.
Series [8] can be described thus: Cytotoxicity against BHK cells. The class given is cell-based, Mesocricetus auratus. Particulars: hamster.
For series [9], the system named is Influenza A virus. The experiment in a line: Antiviral activity against influenza A virus NWS/H0N1 infected in BHK cells at 1 mg/ml by agar diffusion assay. The class given is functional. Particulars: read-out: IZ.
The subject of series [10] is Coxsackievirus B1. Nature of the series: Antiviral activity against Coxsackievirus B1 infected in human HeLa cells at 1 mg/ml by agar diffusion assay. It is filed as functional. Particulars: Enterovirus B; read-out: IZ.
Series [11] relates to Coxsackievirus B1. The experiment in a line: Antiviral activity against Coxsackievirus B1 infected in human HeLa cells by agar diffusion assay. The class given is functional.
Series [12] in a line: Cytotoxicity against human HeLa cells by neutral red assay. It is filed as cell-based.
A further series has as its system Human alphaherpesvirus 1. Nature of the series: Antiviral activity against Herpes simplex virus 1 infected in chick embryo fibroblasts by plaque reduction assay. It is filed as functional, organism-based.
Series [13] concerns Bacillus subtilis. Nature of the series: Antibacterial activity against Bacillus subtilis up to 200 ug/ml. The class given is functional, organism-based.
The test system of series [14] is Staphylococcus aureus. The experiment in a line: Antibacterial activity against Staphylococcus aureus Oxford up to 200 ug/ml. The class given is functional, organism-based.
For series [15], the system named is Staphylococcus aureus. The experiment in a line: Antibacterial activity against Staphylococcus aureus Russel up to 200 ug/ml. The class given is functional, organism-based.
For series [16], the system named is Staphylococcus aureus. The experiment in a line: Antibacterial activity against Staphylococcus aureus 1517 up to 200 ug/ml. The class given is functional, organism-based.
Series [17] relates to Enterococcus faecalis. The experiment in a line: Antibacterial activity against Streptococcus faecalis I up to 200 ug/ml. It is filed as functional, organism-based.
Series [18] concerns Streptococcus pyogenes. The experiment in a line: Antibacterial activity against Streptococcus pyogenes CN10 up to 200 ug/ml. It is filed as functional, organism-based.
The test system of series [19] is Influenza A virus. Nature of the series: Antiviral activity against influenza A virus NWS/H0N1 infected in BHK cells up to 100 ug/ml by agar diffusion assay. It is filed as functional, organism-based.
The nature of series [20]: Cytotoxicity against BHK cells up to 100 ug/ml by carbol fuschin assay. Particulars: hamster. It is filed as cell-based, Mesocricetus auratus.
For series [21], the system named is Coxsackievirus B1. The experiment in a line: Antiviral activity against Coxsackievirus B1 infected in human HeLa cells up to 100 ug/ml by agar diffusion assay. The class given is functional, organism-based.
The next series has as its system HeLa. The experiment in a line: Cytotoxicity against human HeLa cells up to 100 ug/ml. The class given is cell-based.

Converted amounts (≈) assume the structure as drawn. The source made the active and inactive calls.

`CNC1=NC(=O)[C@H]([C@H](C)c2c[nH]c3ccccc23)O1` (racemic) [INDOMYCIN]: the minimal inhibitory concentration (MIC) in the series with Bacillus subtilis [1] came to 20 µg/mL (≈ 77.7 µM); in the series with Staphylococcus aureus [2], 2 µg/mL (≈ 7.77 µM); in the series on Staphylococcus aureus [3], 2 µg/mL (≈ 7.77 µM); in the series on Staphylococcus aureus [4], 2 µg/mL (≈ 7.77 µM); against Enterococcus faecalis [5] it was 2 µg/mL (≈ 7.77 µM); in the series on Streptococcus pyogenes [6], 200 µg/mL (≈ 777 µM). In the series with Influenza A virus [7], this compound displayed a PDD50 of more than 100 µg/mL. This compound had an MCC in series [8] of more than 100 µg/mL. In addition, the zone of inhibition at 1000 µg/mL with Influenza A virus [9] and in the series with Coxsackievirus B1 [10] was 0 mm in each case.
With `CNC1=NC(=O)[C@H]([C@H](C)c2c[nH]c3ccccc23)S1` (racemic), the MIC with Bacillus subtilis [1] was 20 µg/mL (≈ 73.2 µM); with Staphylococcus aureus [2], 2 µg/mL (≈ 7.32 µM); against Staphylococcus aureus [3], 2 µg/mL (≈ 7.32 µM); in the series with Staphylococcus aureus [4], 2 µg/mL (≈ 7.32 µM); with Enterococcus faecalis [5], 2 µg/mL (≈ 7.32 µM); in the series on Streptococcus pyogenes [6], 200 µg/mL (≈ 732 µM). Moreover, the PDD50 in the series with Influenza A virus [7] came out at 3 µg/mL; in the series on Coxsackievirus B1 [11], 5 µg/mL. Also, the MCC in [8] was 10 µg/mL; in series [12] it was 30 µg/mL. The zone of inhibition at 1000 µg/mL was found to be 36 mm in the series on Influenza A virus [9] and 29 mm in the series on Coxsackievirus B1 [10].
Regarding `C[C@H](c1c[nH]c2ccccc12)[C@@H]1SC(NCCO)=NC1=O` (racemic), the MIC with Bacillus subtilis [1] was more than 200 µg/mL; against Staphylococcus aureus [2] it was 200 µg/mL (≈ 659 µM); in the series with Staphylococcus aureus [3], 200 µg/mL (≈ 659 µM); with Staphylococcus aureus [4], 200 µg/mL (≈ 659 µM); with Enterococcus faecalis [5] it was 200 µg/mL (≈ 659 µM); against Streptococcus pyogenes [6], 200 µg/mL (≈ 659 µM). Further, the PDD50 is more than 30 µg/mL in the series on Influenza A virus [7] and 16 µg/mL with Coxsackievirus B1 [11]. For the same compound, the MCC in series [8] was 100 µg/mL; in series [12], more than 100 µg/mL. In the series on Human alphaherpesvirus 1, the result was inactive. The zone of inhibition at 1000 µg/mL was 8 mm in the series with Influenza A virus [9] and 20 mm in the series with Coxsackievirus B1 [10].
With `CNC1=NC(=O)[C@@H]([C@H](C)c2c[nH]c3ccccc23)O1` (racemic), the MIC is more than 200 µg/mL against Bacillus subtilis [1]; 200 µg/mL (≈ 777 µM) in the series with Staphylococcus aureus [2]; 200 µg/mL (≈ 777 µM) against Staphylococcus aureus [3]; 200 µg/mL (≈ 777 µM) in the series on Staphylococcus aureus [4]; 200 µg/mL (≈ 777 µM) in the series with Enterococcus faecalis [5]; more than 200 µg/mL in the series on Streptococcus pyogenes [6]. In the series on Influenza A virus [7], this compound showed a PDD50 of more than 100 µg/mL. In addition, the MCC in series [8] is more than 100 µg/mL. Besides, the zone of inhibition at 1000 µg/mL in the series with Influenza A virus [9] and with Coxsackievirus B1 [10] was 0 mm each time.
As to `CCNC1=NC(=O)[C@H]([C@H](C)c2c[nH]c3ccccc23)S1` (racemic), the MIC with Bacillus subtilis [1] amounted to 200 µg/mL (≈ 696 µM); in the series on Staphylococcus aureus [2], 20 µg/mL (≈ 69.6 µM); in the series on Staphylococcus aureus [3] it was 20 µg/mL (≈ 69.6 µM); in the series with Staphylococcus aureus [4], 20 µg/mL (≈ 69.6 µM); in the series with Enterococcus faecalis [5] it was 20 µg/mL (≈ 69.6 µM); in the series on Streptococcus pyogenes [6], 200 µg/mL (≈ 696 µM). Also, the PDD50 in the series on Influenza A virus [7] is 5 µg/mL; with Coxsackievirus B1 [11] it was 10 µg/mL. The figures for the MCC in series [8] and in series [12] were 10 µg/mL and more than 100 µg/mL, respectively. The outcome in the series on Human alphaherpesvirus 1 was inactive. Besides, the zone of inhibition at 1000 µg/mL in the series on Influenza A virus [9] worked out at 34 mm; with Coxsackievirus B1 [10], 16 mm.
As for `OC(c1ccccc1)c1nc2ccccc2[nH]1` (centres undefined), the PDD50 with Influenza A virus [7] is more than 100 µg/mL; with Coxsackievirus B1 [11] it was 20 µg/mL. Also, the MCC in [8] is more than 100 µg/mL; in series [12], 100 µg/mL. Besides, the zone of inhibition at 1000 µg/mL with Influenza A virus [9] amounted to 0 mm; in the series with Coxsackievirus B1 [10], 24 mm.
For the compound `CNC1=NC(=O)C(Cc2c[nH]c3ccccc23)S1` (racemic), the MIC was more than 200 µg/mL in the series on Bacillus subtilis [1]; 20 µg/mL (≈ 77.1 µM) against Staphylococcus aureus [2]; 20 µg/mL (≈ 77.1 µM) in the series with Staphylococcus aureus [3]; 20 µg/mL (≈ 77.1 µM) against Staphylococcus aureus [4]; 20 µg/mL (≈ 77.1 µM) against Enterococcus faecalis [5]; 200 µg/mL (≈ 771 µM) against Streptococcus pyogenes [6]. The results for the PDD50 in the series on Influenza A virus [7] and in the series on Coxsackievirus B1 [11] were 10 µg/mL and 100 µg/mL, respectively. Further, the MCC was 30 µg/mL in [8] and more than 100 µg/mL in [12]. Also, in the series with Human alphaherpesvirus 1, the outcome was inactive. Besides, the zone of inhibition at 1000 µg/mL in the series with Influenza A virus [9] was 14 mm; in the series with Coxsackievirus B1 [10], 9 mm.
With `C/N=C1/S[C@@H]([C@H](C)c2c[nH]c3ccccc23)C(=O)N1C` (racemic), the minimum inhibitory concentration (MIC) in the series with Bacillus subtilis [1] worked out at 20 µg/mL (≈ 69.6 µM); against Staphylococcus aureus [2], 2 µg/mL (≈ 6.96 µM); in the series with Staphylococcus aureus [3], 2 µg/mL (≈ 6.96 µM); in the series with Staphylococcus aureus [4], 2 µg/mL (≈ 6.96 µM); in the series with Enterococcus faecalis [5], 2 µg/mL (≈ 6.96 µM); in the series with Streptococcus pyogenes [6] it was 200 µg/mL (≈ 696 µM). Also, the result with Bacillus subtilis [13], in the series on Staphylococcus aureus [14], in the series on Staphylococcus aureus [15], in the series on Staphylococcus aureus [16], with Enterococcus faecalis [17] and in the series with Streptococcus pyogenes [18] was inactive. Also, the result in the series on Influenza A virus [19], in the series on Coxsackievirus B1 [21] and with Human alphaherpesvirus 1 was inactive. The PDD50 is 1.2 µg/mL in the series with Influenza A virus [7] and 3 µg/mL in the series on Coxsackievirus B1 [11]. The MCC in series [8] is 4 µg/mL; in [12], 12 µg/mL. Moreover, the Activity result (in [20]; in the series with HeLa) was “Non-toxic” throughout.
Regarding `NC(=O)c1ncn([C@@H]2O[C@H](CO)[C@@H](O)[C@H]2O)n1` [RIBAVIRIN], the PDD50 with Influenza A virus [7] was 1 µg/mL; with Coxsackievirus B1 [11], more than 100 µg/mL. Further, the MCC in series [8] and in series [12] was more than 100 µg/mL throughout. In addition, the zone of inhibition at 1000 µg/mL worked out at 28 mm in the series on Influenza A virus [9] and 0 mm in the series with Coxsackievirus B1 [10].
